Reference: US6558686B1, “Method of coating medical devices with a combination of antiseptics and antiseptic coating therefor” (Baylor College of Medicine, priority 1995, dated 2003)

How the values were obtained:
Staph. epidermidis = experiment: Zones of inhibition, coated stainless steel cylinders on agar (Example 1); assay type: cell-based, Staphylococcus epidermidis; conditions: coated stainless steel cylinder, 18-24 hours at 37° C.
Method: (§1) Antiseptic coatings were applied to each of four stainless steel cylinders (0.5″ diameter×2″ length), using each of the above four antiseptic solutions, by dipping each cylinder for 1 minute at 50° C. in the respective solution.

Pseud. aeruginosa = experiment: as above; assay type: cell-based, Pseudomonas aeruginosa; conditions: coated stainless steel cylinder, 18-24 hours at 37° C.
Method: as §1

Candida albicans [1] = experiment: as above; assay type: cell-based; conditions: coated stainless steel cylinder, 18-24 hours at 37° C.
Method: as §1

P. aerug = experiment: Zones of inhibition, single-layer coated stainless steel cylinders (Example 4); assay type: cell-based; conditions: single-layer coated stainless steel cylinder, 18-24 hours at 37° C.
Method: (§3) Stainless steel cylinders (0.5×2″) were dipped in one of the three antiseptic coating solutions for 1 minute at 50° C. Devices were allowed to dry for at least 4 hours, then placed into agar plates that had been freshly overlaid with one of the microorganisms shown below in Table 4. After 18-24 hours of incubation at 37° C., the following measurements of zones of inhibition were recorded.

Candida albicans [2] = experiment: as above; assay type: cell-based; conditions: single-layer coated stainless steel cylinder, 18-24 hours at 37° C.
Method: as §3

[3] = cited from earlier work
S. epidermidis [4] = experiment: Zones of inhibition, single-layer coated stainless steel cylinders (Example 4); conditions: single-layer coated stainless steel cylinder, 18-24 hours at 37° C.
Method: as §3

Candida albicans [5] = experiment: Antimicrobial activity of coated silicone urinary catheters, initial and after 1 week in urine (Example 5); assay type: cell-based; conditions: for Candida albicans 1 week (antimicrobial activity of coated catheter): catheter segments incubated in urine for 1 week at 37° C.; for Candida albicans Initial (antimicrobial activity of coated catheter): silicone urinary catheter
Method: (§2) A first antiseptic solution was formed by dissolving chloroxylenol (200 mg/ml) in an 85:15 solution of butyl acetate: methanol that has NaOH (5 mg/ml of methanol). A second antiseptic solution was formed by dissolving thymol (150 mg/ml) in an 85:15 solution of butyl acetate: methanol that has NaOH (5 mg/ml of methanol). A third antiseptic solution was formed by dissolving chloroxylenol (200 mg/ml) and thymol (150 mg/ml) in an 85:15 solution of butyl acetate: methanol that has NaOH (5 mg/ml of methanol). Eighteen-french silicone urinary catheters were dipped in one of the above coating solutions for 1 hour at 45° C. The catheters were allowed to dry overnight then rinsed.

E. coli = experiment: as above; assay type: cell-based; conditions: for E. coli 1 week (antimicrobial activity of coated catheter): catheter segments incubated in urine for 1 week at 37° C.; for E. coli Initial (antimicrobial activity of coated catheter): silicone urinary catheter
Method: as §2

Enterococcus = experiment: as above; assay type: cell-based; conditions: for Enterococcus 1 week (antimicrobial activity of coated catheter): catheter segments incubated in urine for 1 week at 37° C.; for Enterococcus Initial (antimicrobial activity of coated catheter): silicone urinary catheter
Method: as §2

S. epidermidis [6] = experiment: as above; assay type: cell-based; conditions: for S. epidermidis 1 week (antimicrobial activity of coated catheter): catheter segments incubated in urine for 1 week at 37° C.; for S. epidermidis Initial (antimicrobial activity of coated catheter): silicone urinary catheter
Method: as §2

Pseudomonas = experiment: as above; assay type: cell-based, Pseudomonas aeruginosa; conditions: for Pseudomonas 1 week (antimicrobial activity of coated catheter): catheter segments incubated in urine for 1 week at 37° C.; for Pseudomonas Initial (antimicrobial activity of coated catheter): silicone urinary catheter
Method: as §2

Compound | Zones of inhibition Staph. epidermidis (Staph. epidermidis) [m.m.] | Zones of inhibition Pseud. aeruginosa (Pseud. aeruginosa) [m.m.] | Zones of inhibition Candida albicans (Candida albicans [1]) [m.m.] | Zones of inhibition P. aerug (P. aerug) [m.m.] | Zones of inhibition Candida albicans (Candida albicans [2]) [m.m.] | Solubility in acetic acid ([3]; acetic acid) | Solubility in formic acid ([3]; formic acid) | Solubility in organic solvents ([3]; organic solvents) | Zones of inhibition S. epidermidis (S. epidermidis [4]) [m.m.] | Candida albicans 1 week (antimicrobial activity of coated catheter) (Candida albicans [5]) | Candida albicans Initial (antimicrobial activity of coated catheter) (Candida albicans [5]) | E. coli 1 week (antimicrobial activity of coated catheter) (E. coli) | E. coli Initial (antimicrobial activity of coated catheter) (E. coli) | Enterococcus 1 week (antimicrobial activity of coated catheter) (Enterococcus) | Enterococcus Initial (antimicrobial activity of coated catheter) (Enterococcus) | S. epidermidis 1 week (antimicrobial activity of coated catheter) (S. epidermidis [6]) | S. epidermidis Initial (antimicrobial activity of coated catheter) (S. epidermidis [6]) | Pseudomonas 1 week (antimicrobial activity of coated catheter) (Pseudomonas) | Pseudomonas Initial (antimicrobial activity of coated catheter) (Pseudomonas)
[H]/N=C(\N/C(=N/[H])NCCCCCCNC(=N)NC(=N)Nc1ccc(Cl)cc1)Nc1ccc(Cl)cc1 [Chlorhexidine] | 31 | 28 | 26 | 25 | 28 | soluble | soluble | generally not soluble | 30 |  |  |  |  |  |  |  |  |  | 
Cc1cc(O)cc(C)c1Cl [Chloroxylenol, 4-chloro, 3,5-dimethyl phenol] |  |  |  |  |  |  |  |  |  | 26 | 30 | 11 | 15 | 10 | 13 | 20 | 25 | 0 | 10
Cc1ccc(C(C)C)c(O)c1 [Thymol, 5-methyl-2 isopropyl phenol] | 23 | 18 | 14 |  |  |  |  |  |  | 38 | 60 | 28 | 35 | 17 | 28 | 30 | 38 | 0 | 11
